Test results reported in patent US10576085B2, “Substituted aminopurine compounds, compositions thereof, and methods of treatment therewith” (Signal Pharmaceuticals, LLC, priority 2016, dated 2020).

Key:
Format in all cases: cell-based
JHH-7 = test: Apoptosis, Caspase 3/7-Glo; settings: lowest concentration inducing 2-fold increase of cleaved caspase 3/7 vs DMSO
Description: (§1) Prior to testing, cells were grown and expanded in culture flasks to provide sufficient amounts of starting material. Cells were then diluted to the appropriate densities and added directly to the compound-spotted 384-well plates. Cells were allowed to grow for 72 h at 37° C./5% CO2. At the time when compound was added (t0), initial cell number was assessed via a viability assay (Cell Titer-Glo) by quantifying the level of luminescence generated by ATP present in viable cells. After 72 h, cell viability of compound-treated cells was assessed via Cell Titer-Glo and luminescence measurement. The apoptotic response to Compound 1 was assessed by quantifying the activities of caspase 3 and caspase 7 (Caspase 3/7-Glo) in treated cells and DMSO control cells.
(§2) Proliferation and apoptosis were measured using CellTiter-Glo and Caspase 3/7-Glo. CalX2 values are the lowest concentration at which Compound 1 induces a 2-fold increase of cleaved caspase 3/7 compared to DMSO control. Proliferation and apoptosis data is the average of 3 experiments.

JHH-2 = test: Apoptosis, Caspase 3/7-Glo; settings: lowest concentration inducing 2-fold increase of cleaved caspase 3/7 vs DMSO
Description: as §1, §2

SNU-475 = test: Apoptosis, Caspase 3/7-Glo; settings: lowest concentration inducing 2-fold increase of cleaved caspase 3/7 vs DMSO
Description: as §1, §2

PLC-PRF-5 = test: Apoptosis, Caspase 3/7-Glo; settings: lowest concentration inducing 2-fold increase of cleaved caspase 3/7 vs DMSO
Description: as §1, §2

SNU-398 = test: Apoptosis, Caspase 3/7-Glo; settings: lowest concentration inducing 2-fold increase of cleaved caspase 3/7 vs DMSO
Description: as §1, §2

JHH-1 = test: Apoptosis, Caspase 3/7-Glo; settings: lowest concentration inducing 2-fold increase of cleaved caspase 3/7 vs DMSO
Description: as §1, §2

HepG2 = test: Apoptosis, Caspase 3/7-Glo; settings: lowest concentration inducing 2-fold increase of cleaved caspase 3/7 vs DMSO
Description: as §1, §2

JHH-4 = test: Apoptosis, Caspase 3/7-Glo; settings: lowest concentration inducing 2-fold increase of cleaved caspase 3/7 vs DMSO
Description: as §1, §2

HuH-1 = test: Apoptosis, Caspase 3/7-Glo; settings: lowest concentration inducing 2-fold increase of cleaved caspase 3/7 vs DMSO
Description: as §1, §2

SNU-423 = test: Apoptosis, Caspase 3/7-Glo; settings: lowest concentration inducing 2-fold increase of cleaved caspase 3/7 vs DMSO
Description: as §1, §2

HLF = test: Apoptosis, Caspase 3/7-Glo; settings: lowest concentration inducing 2-fold increase of cleaved caspase 3/7 vs DMSO
Description: as §1, §2

HepG2/C3A = test: Apoptosis, Caspase 3/7-Glo; settings: lowest concentration inducing 2-fold increase of cleaved caspase 3/7 vs DMSO
Description: as §1, §2

HuCCT1 = test: Apoptosis, Caspase 3/7-Glo; settings: lowest concentration inducing 2-fold increase of cleaved caspase 3/7 vs DMSO
Description: as §1, §2

JHH-5 = test: Apoptosis, Caspase 3/7-Glo; settings: lowest concentration inducing 2-fold increase of cleaved caspase 3/7 vs DMSO
Description: as §1, §2

SNU-449 = test: Apoptosis, Caspase 3/7-Glo; settings: lowest concentration inducing 2-fold increase of cleaved caspase 3/7 vs DMSO
Description: as §1, §2

SNU-182 = test: Apoptosis, Caspase 3/7-Glo; settings: lowest concentration inducing 2-fold increase of cleaved caspase 3/7 vs DMSO
Description: as §1, §2

HLE = test: Apoptosis, Caspase 3/7-Glo; settings: lowest concentration inducing 2-fold increase of cleaved caspase 3/7 vs DMSO
Description: as §1, §2

Hep3B = test: Apoptosis, Caspase 3/7-Glo
Description: as §1, §2

HuH-7 = test: Apoptosis, Caspase 3/7-Glo; settings: lowest concentration inducing 2-fold increase of cleaved caspase 3/7 vs DMSO
Description: as §1, §2

JHH-6 = test: Apoptosis, Caspase 3/7-Glo; settings: lowest concentration inducing 2-fold increase of cleaved caspase 3/7 vs DMSO
Description: as §1, §2

PD-L1 = PD-L1 expression, Western blot, LOX-IMVI (BRAF V600E)
Description: The effect of Compound 1 was evaluated on PD-L1 expression levels. Cells were cultured in presence or absence of Compound 1 for indicated time before expression levels of PD-L1, DUSP4 and α-tubulin or α-actin were measured by Western blot. To detect surface levels of PD-L1, cells were treated with DMSO or Compound 1 at indicated concentrations for 48 h and cell surface expression of PD-L1 was detected using flow cytometry analysis (FACS) with an APC-labeled antibody to PD-L1 (clone 29E.1A3; BioLegend, San Diego, Calif.). Geometric mean of PD-L1 positive cells was determined by FlowJo 10 (Treestar, Ashland, Oreg.).

Hep3B (HCC) cells = test: Long term colony assay; settings: up to 8 weeks
Description: (§3) Compound 1 was assessed for its ability to inhibit the colony formation of cancer cells via a long-term colony forming assay. Cells and compounds were added to 96-well plates and were monitored for up to 8 weeks for the formation of colonies. Compound and media were replenished every 1 week throughout the course of the assay. Colony formation was detected via imaging at 4× on the IncuCyte ZOOM System. […] (FIG. 23A-23D).

SW48 (colo) cells = test: Long term colony assay; settings: up to 8 weeks
Description: as §3

AGS (gastric) cells = test: Long term colony assay
Description: as §3

HCT-116 (colo) cells = test: Long term colony assay; settings: up to 8 weeks
Description: as §3

With `C[C@]1(C(N)=O)CC[C@@H](n2c(Nc3c(Cl)cc(Cl)cc3Cl)nc3cnc(N[C@@H]4CCOC[C@H]4F)nc32)CC1` [Compound 1, cis-4-[2-{[(3S,4R)-3-fluorooxan-4-yl]amino}-8-(2,4,6-trichloroanilino)-9H-purin-9-yl]-1-methyl cyclohexane-1-carboxamide] the Cal_X2 (JHH-7) was 4.7601, the Cal_X2 (JHH-2) was 0.2806 and the Cal_X2 (SNU-475) was 10.0000. It also gave a Cal_X2 (PLC-PRF-5) of 3.8310, a Cal_X2 (SNU-398) of 0.0378 and a Cal_X2 (JHH-1) of 0.0427. It also gave a Cal_X2 (HepG2) of 0.0129, a Cal_X2 (JHH-4) of 0.0588 and a Cal_X2 (HuH-1) of 6.5641. For the same molecule, the Cal_X2 (SNU-423) was 10.0000, the Cal_X2 (HLF) was 7.2156 and the Cal_X2 (HepG2/C3A) was 0.8273. For the same molecule, the Cal_X2 (HuCCT1) was 0.0213, the Cal_X2 (JHH-5) was 0.0139 and the Cal_X2 (SNU-449) was 10.0000. For the same molecule, the Cal_X2 (SNU-182) was 5.2385, the Cal_X2 (HLE) was 10.0000 and the “Apoptosis induction CalX2” value (Hep3B; HCC, β-catenin Active) was 0.002 ± 0.002 µM. The Cal_X2 (Hep3B; lowest concentration inducing 2-fold increase of cleaved caspase 3/7 vs DMSO) was 0.0028, the Cal_X2 (HuH-7) was 0.0118 and the Cal_X2 (JHH-6) was 10.0000. For the same molecule, the PD-L1 expression (PD-L1) was “directly inhibits PD-L1 expression”, the “Inhibition of colony formation vs MEK inhibitors (trametinib) and ERK inhibitors (GDC0994)” value (Hep3B (HCC) cells) was “greater levels of inhibition than seen with treatment with MEK inhibitors or ERK inhibitors” and the “Inhibition of colony formation vs MEK inhibitors (trametinib) and ERK inhibitors (GDC0994)” value (SW48 (colo) cells) was “greater levels of inhibition than seen with treatment with MEK inhibitors or ERK inhibitors”. For the same molecule, the “Colony formation of AGS cells resistant to trametinib” value (AGS (gastric) cells; AGS cells resistant to MEK inhibitor trametinib) was “inhibit colony formation”, the “Inhibition of colony formation vs MEK inhibitors (trametinib) and ERK inhibitors (GDC0994)” value (AGS (gastric) cells; AGS, up to 8 weeks) was “greater levels of inhibition than seen with treatment with MEK inhibitors or ERK inhibitors” and the “Inhibition of colony formation vs MEK inhibitors (trametinib) and ERK inhibitors (GDC0994)” value (HCT-116 (colo) cells) was “greater levels of inhibition than seen with treatment with MEK inhibitors or ERK inhibitors”.
